In US20110301235A1, “ORGANOSELENIUM COMPOUNDS AND USES THEREOF” (Alquest Therapeutics, Inc., priority 2009, published 2011):
In brackets after ≈: the same amount, converted by molar mass. Read-outs that look alike come from different tables or passages of the source.

Assay: Solubility measurements
Type: physicochemical
Conditions: kinetic from dmso stock
Protocol: A 2-fold serial dilution of compounds was prepared in 25 mM Hepes pH 7.4, 100 mM NaCl. After 30 minutes at room temperature, precipitates were removed by centrifugation at 18,000×G for 15 min. The supernatant was transferred to a microtiter plate and absorbance at 260 nm was determined. The concentration at which there was no longer a linear increase in absorbance was determined as the solubility limit. The compounds in the examples generally had better solubilities than the reference compound 2-phenyl-1,2-benzisoselenazol-3(2H)-one (66-100 μM), with the compounds described in Examples 1-9 having solubilities of 300, 300, 100, 66-100, 300, 300-600, 1000, 1000, and 1000 μM.

[1] = aqueous buffer, 25 mM Hepes pH 7.4, 100 mM NaCl, 30 minutes at room temperature, centrifuged, absorbance at 260 nm, read-out: solubility (solubility limit)

Structure (SMILES): CCOC(=O)[C@H](CS[Se]c1ccccc1C(=O)Nc1ccccc1)NC(C)=O [Example 4]
- solubility at 30 min (pH 7.4, aqueous buffer): 66 to 100 µM (≈ 30.7 to 46.5 µg/mL)

Structure (SMILES): CCOC(=O)CNC(=O)[C@H](CS[Se]c1ccccc1C(=O)Nc1ccccc1)NC(=O)CC[C@H](N)C(=O)O.Cl [Example 8]
- solubility at 30 min [1]: 1000 µM

Structure (SMILES): Cl.NCCS[Se]c1ccccc1C(=O)Nc1ccccc1 [Example 5]
- solubility at 30 min [1]: 300 µM

Structure (SMILES): O=C(Nc1ccccc1)c1ccccc1[Se]SCCS(=O)(=O)O [Example 7]
- solubility at 30 min (pH 7.4, aqueous buffer): 1000 µM (≈ 416 µg/mL)

Structure (SMILES): O=C(Nc1ccccc1)c1ccccc1[Se]SCCO [Example 6]
- solubility at 30 min (pH 7.4, aqueous buffer): 300 to 600 µM (≈ 106 to 211 µg/mL)

Structure (SMILES): CC(C)(CO)[C@@H](O)C(=O)NCCC(=O)NCCS[Se]c1ccccc1C(=O)Nc1ccccc1 [Example 1]
- solubility at 30 min (pH 7.4, aqueous buffer): 300 µM (≈ 166 µg/mL)

Structure (SMILES): O=c1c2ccccc2[se]n1-c1ccccc1 [2-phenyl-1,2-benzisoselenazol-3(2H)-one, reference compound]
- solubility at 30 min (100 mM NaCl buffer, aqueous buffer, 25 mM Hepes pH 7.4, 100 mM NaCl, 30 minutes at room temperature, centrifuged, absorbance at 260 nm, read-out: solubility (solubility limit)): 66 to 100 µM (≈ 18.1 to 27.4 µg/mL)

Structure (SMILES): CCOC(=O)[C@@H](N)CS[Se]c1ccccc1C(=O)Nc1ccccc1.Cl [Example 3]
- solubility at 30 min [1]: 100 µM

Structure (SMILES): Cl.N[C@@H](CCC(=O)N[C@@H](CS[Se]c1ccccc1C(=O)Nc1ccccc1)C(=O)NCC(=O)O)C(=O)O [Example 9]
- solubility at 30 min [1]: 1000 µM

Structure (SMILES): CC(=O)N[C@@H](CS[Se]c1ccccc1C(=O)Nc1ccccc1)C(=O)O [Example 2]
- solubility at 30 min (pH 7.4, aqueous buffer): 300 µM (≈ 131 µg/mL)
